Test results as given in PMC8395260, “Co-Aggregation of S100A9 with DOPA and Cyclen-Based Compounds Manifested in Amyloid Fibril Thickening without Altering Rates of Self-Assembly” (International Journal of Molecular Sciences, 2021).
Non-standard residues stand in square brackets, D forms with d. Residues, ends and D or L forms follow the SMILES beside them. Dopa = N[C@@H](Cc1ccc(O)c(O)c1)C(=O)O

What was measured:
S100A9 [1] = molecular target: T1, S100A9 (Homo sapiens, UniProt P06702); assay: ThT fluorescence kinetics of S100A9 amyloid formation in the presence of compounds; type: biochemical; conditions: for k, kinetic rate constant of S100A9 amyloid formation: 75 μM S100A9, 20 µM ThT, PBS pH 7.4, 42 °C, isodesmic polymerization fit, triplicate; for k/kS100A9: 75 μM S100A9, PBS pH 7.4, 42 °C
T1 construct: made in house; host or cells: E. coli
T1 sequence (P06702 1-114): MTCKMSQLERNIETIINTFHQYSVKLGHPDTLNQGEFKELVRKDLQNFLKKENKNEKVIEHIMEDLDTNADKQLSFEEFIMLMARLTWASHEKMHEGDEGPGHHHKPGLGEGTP
Text: The amyloid formation of S100A9 in the absence and presence of DOPA and cyclen-based compounds was monitored by ThT fluorescence and is presented in Figure 2. The amyloid formation correlates with the increase of the ThT fluorescence, and the initial parts of the fibrillation kinetic curves were fitted by using an isodesmic polymerization model to derive the kinetic rates; this model has previously been used in kinetic analysis of S100A9 amyloid self-assembly.
Figure 2 Kinetics of S100A9 amyloid formation in the absence and presence of DOPA and cyclen-based compounds monitored by ThT fluorescence. (a) Amyloid kinetics monitored at the ratio of S100A9 to corresponding compound of 1:1 and (b) 1:10, respectively. Symbols indicating the experimental data points for S100A9 alone or with respective compounds are shown in the caption and the corresponding lines indicate the fitting with the isodesmic polymerization model. The equation for isodesmic polymerization fitting is shown in ((b) inset). 75 μM S100A9, PBS, pH 7.4, and 42 °C.
ThT dye is known to bind specifically to β-sheet-containing amyloid structures and thus enables quantification of the kinetics of amyloid self-assembly. ThT assay was performed as described previously. First, 75 μM S100A9 was transferred into Nunc 96U black well plates with transparent bottoms and then 20 µM ThT was added to each well. The compounds dissolved in PBS were added to S100A9 solution with molar ratios of 1:1 and 1:10, respectively. Sample volumes were kept at 200 μL per well. The plates were immediately covered, placed into a Tecan F200 PRO plate reader, and incubated at 42 °C with 432 rpm orbital shaking every 10 min. ThT fluorescence was recorded every 10 min. Filters at 430 and 495 nm wavelengths with a 20 nm band width each were used for excitation and emission, respectively. Each sample was incubated in triplicate. ThT fluorescence intensities were normalized.

S100A9 amyloid fibrils = assay: AFM imaging of S100A9 fibrils, fibril height distributions; type: biochemical; conditions: PBS pH 7.4, 42 °C; for S100A9 fibril morphology change (AFM): molar ratio 1:1; for median height of S100A9 fibrils (AFM): molar ratio 1:10, text, S100A9 alone ca. 1.6 nm
Procedure: In order to complement the kinetic analysis, we also monitored the S100A9 amyloid formation by AFM imaging (Figure 3). The amyloid fibrils of S100A9 alone that developed after 100 h of incubation in PBS, pH 7.4, and 42 °C were very flexible, relatively short, i.e., within 200–600 nm length, and also characterized by a narrow distribution of the heights with a median at ca. 1.6 nm in the AFM cross-sections. In the presence of all DOPA-based compounds, the fibrils of S100A9 become thicker with median heights of ca. 2.0–2.2 nm, and generally longer (Figure 3). […] At the molar ratio of S100A9 to DOPA-based compounds of 1:10, the height of fibrils became even thicker, shifting towards 2.2–2.8 nm median height and in the case of DOPA-D-H-DOPA to 3.0–3.2 nm (Figure 3), while their lengths remained about the same as at the 1:1 molar ratio.
Figure 3 AFM imaging of S100A9 fibrils in the absence and presence of DOPA and cyclen-based compounds and the analysis of fibril height distributions. (a) Representative AFM image of S100A9 fibrils incubated alone. (b,c) Distribution of fibril heights measured in AFM cross-sections. The same distribution is shown in both columns to facilitate the comparison with the following height distributions carried out in the presence of compounds. (d,g,j,m,p) Representative AFM images of S100A9 fibrils in the presence of DOPA and cyclen-based compounds at a 1:1 molar ratio of S100A9 to compound. (e,h,k,n,q) Distributions of fibril heights measured in AFM cross-sections at the S100A9 to compound molar ratio of 1:1 and (f,i,l,o,r) at molar ratio of 1:10. Image sizes are 2.5 × 2.5 μm. The compounds and molar ratios are indicated above the figures. Samples were incubated for 50 h in PBS, pH 7.4, and 42 °C. […]
S100A9 protein was expressed in E. coli and purified as described previously. Freshly dissolved S100A9 in PBS, pH 7.4 was used in all measurements. Lyophilized S100A9 was dissolved on ice in PBS buffer at pH 7.4. Then, S100A9 samples were filtered using a 0.22 µm spin membrane filter to remove any preformed aggregates. These solutions were directly subjected to experiments. To produce amyloids, S100A9 was incubated in PBS, pH 7.4, and 42 °C. The cyclic compounds (Figure 1) were dissolved in PBS at pH 7.4, and their stock solutions were kept frozen prior to measurements.
AFM imaging was performed by using a BioScope Catalyst AFM (Bruker; Phoenix, AZ, USA), operating in a peak force mode in air. The scan rate was 0.51 Hz and the resolution was 512 × 512 pixels. Bruker MSLN and SLN cantilevers were used in all measurements. Imaging was also conducted using a PicoPlus AFM (Molecular Imaging), equipped with a 100 μm scanner, operating in tapping mode in air. The resonance frequency was set in 170 to 190 kHz range, scan rate of 1 Hz, and resolution of 512 × 512 pixels. […]

S100A9 [2] = molecular target: T1, S100A9; assay: Titration of S100A9 with compounds followed by intrinsic fluorescence; conditions: intrinsic Trp 88 fluorescence, single binding site model, legend: 75 μM S100A9, PBS pH 7.4, 20 °C, method: 1 μM S100A9, 5 nM to 2.4 μM compound, 3 h room temperature, triplicates; for Kd: read-out: apparent dissociation constant Kd
Procedure: S100A9 was titrated by each compound of interest following the changes in intrinsic fluorescence intensity, since S100A9 has one aromatic residue: Trp 88. The fitting was performed using a single binding site model to determine the apparent dissociation constant for each compound. […] A twice larger Kd was determined only for DOPA-D-H-DOPA binding.
Figure 4 Binding of DOPA and cyclen-based compounds to native S100A9 followed by intrinsic fluorescence. (a–e) Normalized titrations of S100A9 by corresponding compounds. Each compound is indicated above corresponding figure (a–e) and their Kd in captions. Symbols indicate the experimental data points and lines the fitting with a single binding site model. 75 μM S100A9, PBS, pH 7.4, and 20 °C.
First, 1 μM S100A9 was incubated in PBS, pH 7.4, room temperature for 3 h in the absence or presence of 5 nM to 2.4 μM of the studied compounds prior to fluorescence measurements. The final volume was kept at 400 μL for all samples. The fluorescence emission spectra were recorded using a Jasco spectrofluorometer FP 6500 (Japan), setting the excitation at 296 nm and emission at 350 nm wavelengths, respectively, with a 3 nm band-width on both the excitation and emission. The measurements were performed in triplicates. Fitting of the normalized titration curves was performed by using a single site binding model.

[3] = ThT incubation of individual compounds (amyloid self-assembly of the compounds); type: physicochemical; conditions: 75 μM compound, PBS pH7.4, 42 °C, same period as S100A9 kinetics
Procedure: Figure S1. Time dependence of Thioflavin-T fluorescence changes during its incubation with S100A9 and DOPA and Cyclen-based compounds. Thioflavin-T fluorescence in arbitrary units is shown along y-axis, time in minutes – along x-axis. Increase in Thioflavin-T fluorescence in the presence of 75 μM S100A9 reflects its amyloid self-assembly and shown in brown. By contrast, there were no increase in Thioflavin-T fluorescence upon incubation with 75 μM of corresponding compounds as […]
green line, for DOPA-H-H-DOPA – by orange, DOPA-D-H – by chartreuse, H-E-Cyclen – by red and […]
assembly of these compounds under the conditions of our experiments. PBS, pH7.4 and 42 °C.
(1 picture or pasted object on this page, not shown here)

| SMILES | k, kinetic rate constant of S100A9 amyloid formation (S100A9 [1]; S100A9:compound 1:1) [M⁻¹ s⁻¹] | k/kS100A9 (S100A9 [1]; S100A9:compound 1:1) | k, kinetic rate constant of S100A9 amyloid formation (S100A9 [1]; S100A9:compound 1:10) [M⁻¹ s⁻¹] | k/kS100A9 (S100A9 [1]; S100A9:compound 1:10) | S100A9 fibril morphology change (AFM) (S100A9 amyloid fibrils) | median height of S100A9 fibrils (AFM) (S100A9 amyloid fibrils) | apparent dissociation constant Kd (S100A9 [2]) | ThT fluorescence upon incubation of compound alone (amyloid self-assembly) [3] | Kd (S100A9 [2]) [nM] |
| --- | --- | --- | --- | --- | --- | --- | --- | --- | --- |
| N[C@@H](Cc1ccc(O)c(O)c1)C(=O)N[C@@H](CC(=O)O)C(=O)N[C@@H](Cc1c[nH]cn1)C(=O)N[C@@H](Cc1ccc(O)c(O)c1)C(=O)O [DOPA-D-H-DOPA] (H-[Dopa]DH[Dopa]-OH) | 60000 | 0.91 | 66000 | 1 | tended to clump together, forming large clustered aggregates | 3.0–3.2 nm | sub-micromolar range | flat lines close to zero | – |
| N[C@@H](Cc1ccc(O)c(O)c1)C(=O)N[C@@H](CC(=O)O)C(=O)N[C@@H](Cc1c[nH]cn1)C(=O)O [DOPA-D-H] (H-[Dopa]-Asp-His-OH) | 63000 | 0.95 | 45000 | 0.69 | tended to clump together, forming large clustered aggregates | – | sub-micromolar range | flat lines close to zero | 110 ± 40 |
| N[C@@H](Cc1ccc(O)c(O)c1)C(=O)N[C@@H](Cc1c[nH]cn1)C(=O)N[C@@H](Cc1c[nH]cn1)C(=O)N[C@@H](Cc1ccc(O)c(O)c1)C(=O)O [DOPA-H-H-DOPA] (H-[Dopa]HH[Dopa]-OH) | 77000 | 1.17 | 134000 | – | – | – | sub-micromolar range | flat lines close to zero | – |
| O=C(CN1CCNCCNCCNCC1)N[C@@H](Cc1ccc(O)c(O)c1)C(=O)O [DOPA-cyclen] | 62000 | 0.93 | 133000 | – | – | – | sub-micromolar range | flat lines close to zero | 100 ± 40 |
| O=C(O)CC[C@H](NC(=O)CN1CCNCCNCCNCC1)C(=O)N[C@@H](Cc1c[nH]cn1)C(=O)O [H-E-cyclen] | 69000 | 1.05 | 48000 | 0.72 | did not lead to thickening of amyloid fibrils | 2.0 nm | sub-micromolar range | flat lines close to zero | 90 ± 50 |
